Source: patent US10288602B2, “Screening method, a kit, a method of treatment and a compound for use in a method of treatement” (ATROGI AB, priority 2013, dated 2019)

Experiments:
CHO GLUT4 cells = test: Glucose uptake (3H-2-deoxy-glucose) in CHO GLUT4 cells; assay type: cell-based, Chinese Hamster; conditions: for mTORC2 activity represented by glucose uptake: CHO GLUT4 cells, reference: cells not contacted
Protocol: (§1) Glucose uptake was measured in CHO Glut 4 (Chinese Hamster Ovary cells transfected to overexpress GLUT4) and L6-myotubes grown in 12-well plates using ^3H-2-dexoy-glucose as previously described (Nevzorova et al. 2006, Dehvari et al. 2011, Nevzorova et al. 2002) with minor modifications. L6-cells were differentiated for 7-8 days before the experiment, serum-starved over night in media containing 0.5% fatty-acid free BSA and stimulated with test compounds for totally 2 h, unless otherwise stated. The test 3′ compounds used in the experiment were: N-[5-(4,5-dihydro-1H-imidazol-2yl)-2-hydroxy-5,6,7,8-tetrahydro naphthalen-1-yl] methanesulfonamide hydrobromide (A61603), noradrenaline (NA), insulin, oxymetazoline (oxy), and 5-(methylamino)-2-({(2R,3R,6S,8S,9R,11R)-3,9,11-trimethyl-8-[(S)-1-methyl-2-oxo-2-(l H-pyrrol-2-yl)ethyl]-1,7-dioxaspiro[5.5]undec-2-yl}methyl)-1,3-benzoxazole-4-carboxylic acid (also referred to as Calcimycin) (A23187).
(§2) Inhibitors were added 30 min before stimulation. 25 min before the end of the experiment, cells were washed twice in warm PBS and kept in glucose-free DMEM together with the different drugs for 10 min before 50 nM ^3H-2-deoxy-glucose was added for additional 6 minutes. The reaction was terminated by washing the cells in ice-cold PBS three times. Cells were lysed in 0.2 NaOH for 1 h in 60° C. and the radioactivity detected by liquid scintillation (scintillation buffer Emulsifier Safe, Perking Elmer and analysis is a Tri-Carb® 2800TR from Perkin Elmer).

L6 myotubes = test: Glucose uptake (3H-2-deoxy-glucose) in L6 myoblasts and L6 myotubes; assay type: cell-based; conditions: for glucose uptake in L6 myoblasts and L6 myotubes / mTORC2 activity represented by glucose uptake: FIG. 2; for mTORC2 activity represented by glucose uptake: L6 myoblasts and myotubes, reference: cells not contacted; for effect on GPCR and insulin-stimulated glucose uptake: indinavir 100M
Protocol: as §1, §2

PIP3 = PIP3 immunofluorescence in permeabilised L6 cells; assay type: cell-based; conditions: FIG. 3
Protocol: PIP3 was visualized in permeabilised L6 cells (0.5% Triton X-100 in water, 15 min) blocked with 10% rat serum in TBS overnight at 4° C. Mouse anti-PIP3 conjugated to a biotinylated goat anti-mouse IgM diluted 1:100) was incubated for 1 h at 37° C., cells washed three times (10% rat serum in TBS), secondary antibody added (streptavidin-Alexa Fluor® 488 1:2000 in TBS, 30 min, 37° C.). Slides were mounted with ProLong® Gold antifade reagent (Invitrogen).

Akt [1] = test: Western blot of Akt phosphorylation (T308, S473) in L6 myotubes; assay type: cell-based; conditions: for Akt activity represented by phosphorylation of Akt: FIG. 5, 10 min, 30 min, 2 h, reference: cells not contacted
Protocol: (§3) L6 myotubes (FIG. 5) and CHO GLUT4 cells (FIG. 6) in 12-well plates were used for western blotting. Cells were serum-starved overnight before experiment. Immunoblotting was performed as previously described (Nevzorova et al. 2006, […] et al. 2011, Nevzorova et al. 2002). Primary antibodies (Akt, phospho-Akt T308, phospho-Akt S473, AS 160, GLUT4, phospho-mTOR […], phospho-mTOR […], raptor, and rictor diluted 1:1000) were all from Cell Signaling Technology, Inc and were detected using a secondary antibody (horseradish peroxidase-linked anti-rabbit IgG, from Cell Signaling Technology, Inc) diluted 1:2000 and measured using enhanced chemiluminescence (ECL, Amersham Biosciences).

AS160 = test: Western blot of AS160 phosphorylation (T642) in L6 myotubes; assay type: cell-based; conditions: FIG. 7; for Akt activity represented by phophorylation of Akt substrate: AS160 p-T642, L6 myotubes, reference: cells not contacted; for AS160 phosphorylation: L6 myotubes
Protocol: as §3

mTORC2 = test: Western blot of mTOR phosphorylation (S2448, S2481) in L6 myotubes; assay type: cell-based; conditions: for mTORC2 activity represented by phosphorylation of mTORC2: FIG. 13, reference: cells not brought into contact with the compound
Protocol: as §3

GLUT4 = GLUT4 in plasma membrane (GLUT4 translocation) in L6 myotubes; assay type: cell-based; conditions: for mTORC2 activity represented by GLUT translocation: FIG. 20, reference: cells not contacted
Akt [2] = test: Western blot of Akt phosphorylation (T308, S473) in CHO GLUT4 cells; assay type: cell-based, Chinese Hamster; conditions: for Akt p-S473 % basal: CHO GLUT4, 10 min, approximate values from FIG. 6B, insulin, NA, oxy 0.1 μM, A61603 0.01 μM; for Akt activity represented by phosphorylation of Akt: CHO GLUT4 cells, FIG. 6, 10 min, reference: cells not contacted
Protocol: as §3

[3] = Glucose tolerance test in Goto-Kakizaki GK-rats; assay type: in vivo, rat; conditions: in drinking water 4 days, 60, 90 and 120 minutes after glucose, vs untreated animals, FIG. 21
Protocol: Goto-Kakizaki GK-rats, showing impaired glucose tolerance form an established model of type 2 diabetes. GK-rats were split into two groups, one of which was treated with the GPCR agonist clenbuterol in the drinking water for 4 days prior to a glucose tolerance test.

rat soleus muscle = test: 3-O-methylglucose uptake in intact rat soleus muscle ex vivo; conditions: 30 min preincubation, then insulin or isoproterenol 1 h; FIG. 11
Protocol: Soleus muscles were dissected from Sprague-Dawley rats and suspended in Krebs-Henseleit bicarbonate (KHB) buffer (118.5 mM NaCl, 4.7 mM KCl, 1.2 mM KH2PO4, 25 mM NaHCO3, 2.5 mM CaCl2, 1.2 mM MgSO, 5 mM HEPES) in organ baths containing 30 ml KHB containing 5 mM glucose and 15 mM mannitol, bubbled with 95% O2/5% CO2 (pH 7.4) and maintained at 37° C. […] Muscles were rinsed with KHB (20 mM mannitol) for 10 min, then incubated in KHB (8 mM 3-O-methylglucose and 12 mM mannitol with 438 μCi/mmol 3-O-methyl[^3H]glucose (80.2 Ci/mmol; PerkinElmer) and 42 μCi/mmol [^14C] mannitol (58.8 mCi/mmol; PerkinElmer, USA)) for 12 min. Muscles were then rinsed with PBS and frozen in liquid nitrogen, weighed and dissolved in 1 mL of 0.5M NaOH at 60′C. ^3H and ^14C were measured by liquid scintillation counting. Total muscle 3-O-methylglucose and extracellular space were measured as described previously (23). Intracellular 3-O-methylglucose accumulation was calculated by: (Total muscle 3-O-methylglucose)−(extracellular 3-O-methylglucose)=intracellular 3-O-methylglucose. This is then expressed as a rate of 3-O-methylglucose transport per mL of intracellular water per hour.

skeletal muscle = test: [3H]-2DG glucose uptake in mouse skeletal muscle in vivo; conditions: WT 129sv mice, 10 mg/kg, 10 min before insulin or isoproterenol 1 mg/kg; FIG. 12
Protocol: After 20 min [^3H]-2DG (130 μCi/kg) was injected. Muscles were sampled 1 h later and lysed in 0.5M NaOH.
Glucose uptake was measured by liquid scintillation counting.

[4] = system: other members of the PI3K/PIKK family; conditions: at up to 1 μM; Garcia-Martinez et al. 2009; cited from earlier work
[5] = L6 myotubes, FIG. 19, cytochalasin B 10 μM

CC(C)NCC(O)c1ccc(O)c(O)c1 (centres unmarked) [isoproterenol]
mTORC2 activity represented by glucose uptake (CHO GLUT4 cells; FIG. 1): + (1, 2) | glucose uptake in L6 myoblasts and L6 myotubes (L6 myotubes): increased | mTORC2 activity represented by glucose uptake (L6 myotubes): + (1, 2) | PIP3 content (PIP3): not isoproterenol increased PIP3 content | Akt activity represented by phosphorylation of Akt (Akt [1]; L6 myotubes): − (5) | Akt activity represented by phophorylation of Akt substrate (AS160): − (7) | AS160 phosphorylation (AS160): not isoproterenol treatment | phosphorylation of mTOR (sites S2448, S2481) (mTORC2; FIG. 13): phosphorylation only at S2481 | mTORC2 activity represented by phosphorylation of mTORC2 (mTORC2): + (13) | mTORC2 activity represented by GLUT translocation (GLUT4): + (20)

NC[C@H](O)c1ccc(O)c(O)c1 [noradrenaline]
mTORC2 activity represented by glucose uptake (CHO GLUT4 cells; FIG. 1): + (1) | glucose uptake in CHO glut 4 (CHO GLUT4 cells; FIG. 1): increases | Akt p-S473 % basal (Akt [2]): 130 % basal | Akt activity represented by phosphorylation of Akt (Akt [2]): − (6)

CCN(CC)CCCCN1c2ccccc2Oc2ccc(Cl)cc21 [Akt inhibitor X]
effect on insulin-stimulated glucose uptake (L6 myotubes; L6 myotubes, inhibitor 10 μM, FIG. 4): inhibited | effect on GPCR-mediated glucose uptake (L6 myotubes; L6 myotubes, inhibitor 10 μM, isoproterenol, FIG. 4): not GPCR-mediated glucose uptake

CC(C)(C)NCC(O)c1cc(Cl)c(N)c(Cl)c1 (centres unmarked) [clenbuterol]
blood glucose levels in glucose tolerance test [3]: greatly improved

CO[C@H]1C[C@@H]2CC[C@@H](C)[C@@](O)(O2)C(=O)C(=O)N2CCCC[C@H]2C(=O)O[C@H]([C@H](C)C[C@@H]2CC[C@@H](O)[C@H](OC)C2)CC(=O)[C@H](C)/C=C(\C)[C@@H](O)[C@@H](OC)C(=O)[C@H](C)C[C@H](C)/C=C/C=C/C=C/1C [rapamycin]
effect on insulin mediated or isoproterenol mediated glucose uptake (L6 myotubes; short term treatment, L6 myotubes, FIG. 14): no effect

insulin
glucose uptake in L6 myoblasts and L6 myotubes (L6 myotubes): increased | mTORC2 activity represented by glucose uptake (L6 myotubes): + (2) | PIP3 content (PIP3): increased | Akt activity represented by phosphorylation of Akt (Akt [1]; L6 myotubes): + (5, 6) | Akt phosphorylation at T308 and S473 (Akt [1]; all time points examined, FIG. 5, FIG. 6): increased | Akt p-S473 % basal (Akt [2]): 170 % basal | Akt activity represented by phosphorylation of Akt (Akt [2]): + (5, 6) | Akt activity represented by phophorylation of Akt substrate (AS160): + (7) | AS160 phosphorylation (AS160): phosphorylated | phosphorylation of mTOR (sites S2448, S2481) (mTORC2; FIG. 13): phosphorylation of mTOR at both S2448 and S2481 | mTORC2 activity represented by phosphorylation of mTORC2 (mTORC2): + (13) | mTORC2 activity represented by GLUT translocation (GLUT4): + (20)

C=C1[C@@H](C)[C@H]2[C@H](Cc3ccccc3)NC(=O)[C@]23OC(=O)/C=C/[C@H](O)CCC[C@@H](C)C/C=C/[C@H]3[C@@H]1O [cytochalasin B]
block of basal glucose uptake (L6 myotubes; L6 myotubes, FIG. 19, cytochalasin B 10 μM, indinavir): ~40% | effect on GPCR and insulin-stimulated glucose uptake (L6 myotubes; [5]): markedly reduced

Br.CS(=O)(=O)Nc1c(O)ccc2c1CCCC2C1=NCCN1 (centres unmarked) [A61603, N-[5-(4,5-dihydro-1H-imidazol-2yl)-2-hydroxy-5,6,7,8-tetrahydronaphthalen-1-yl] methanesulfonamide hydrobromide]
mTORC2 activity represented by glucose uptake (CHO GLUT4 cells; FIG. 1): + (1) | Akt p-S473 % basal (Akt [2]): 135 % basal | Akt activity represented by phosphorylation of Akt (Akt [2]): − (6)

COc1ccc(-c2ccc3c(N4CCOCC4)nc(N4C[C@@H](C)O[C@@H](C)C4)nc3n2)cc1CO [KU0063794]
effect on GPCR stimulated glucose-uptake (CHO GLUT4 cells; CHO glut 4, FIG. 10B): inhibits | effect on GPCR stimulated glucose-uptake (L6 myotubes; L6 myotubes, FIG. 10A): inhibits | effect on insulin-stimulated Akt phosphorylation at S473 (Akt [1]; 100 nM, L6 myotubes, FIG. 9): decreased | effect on insulin-stimulated phosphorylation of Akt at T308 (Akt [1]; 100 nM, L6 myotubes, FIG. 9): no effect | effect on insulin- and GPCR-stimulated mTOR phosphorylation at S2448 and S2481 (mTORC2; FIG. 13): abolished | effect on insulin and GPCR stimulated GLUT4 translocation (GLUT4; FIG. 20): significantly inhibits | effect on insulin and GPCR stimulated glucose-uptake in intact soleus muscle ex-vivo (rat soleus muscle): inhibits | effect on insulin and GPCR stimulated glucose-uptake in skeletal muscle in-vivo (skeletal muscle): inhibits | inhibition of other members of the PI3K/PIKK family [4]: does not inhibit

O=C(Nc1cccc(Nc2ncc(Br)c(NCCc3cnc[nH]3)n2)c1)N1CCCC1 [BX-912]
effect on insulin-mediated T308-Akt phosphorylation (Akt [1]; L6 myotubes, FIG. 8): significantly inhibited | effect on S473-Akt phosphorylation (Akt [1]; L6 myotubes, insulin, FIG. 8): no effect

Cc1cc(C(C)(C)C)c(O)c(C)c1CC1=NCCN1 [oxymetazoline]
mTORC2 activity represented by glucose uptake (CHO GLUT4 cells; FIG. 1): + (1) | Akt p-S473 % basal (Akt [2]): 135 % basal | Akt activity represented by phosphorylation of Akt (Akt [2]): − (6)

CC(C)(C)NC(=O)[C@@H]1CN(Cc2cccnc2)CCN1C[C@@H](O)C[C@@H](Cc1ccccc1)C(=O)N[C@H]1c2ccccc2C[C@H]1O [indinavir]
effect on GPCR and insulin-stimulated glucose uptake (L6 myotubes; [5]): markedly reduced
